The values below come from patent US20080138393A1, “Water soluble extract of spinach for prevention and repair of DNA damage” (Access to Business Group International LLC, priority 2006, published 2008).

The nature of test [1]: Oxygen radical absorbency capacity (ORAC).
The next test relates to THP-1 monocytes. Kind of test: Protection from oxidative stress, MitoSOX Red mitochondrial superoxide indicator, flow cytometry. The format is cell-based. The following applies: 3 hours treatment, then H2O2 challenge 3 hours, sample 100 ug/ml final, positive control 100 uM, 0% = challenged negative control, 100% = unchallenged normal control. The text has this:
The assay described in this experiment measures oxidative stress occurring within the mitochondria. As discussed above, the biochemical reactions used by mitochondria to generate energy yielding ATP molecules also produce highly oxidizing superoxide free radical as a by-product. Using flow cytometry, the below example measures the protection various test samples provide from oxidative stress by monitoring the status of superoxide within mitochondria following treatment with the test materials.
MitoSOX Red mitochondrial superoxide indicator (Invitrogen cat#M36008) is a fluorescent dye that is selectively taken up by mitochondria. Once in the mitochondria, MitoSOX reacts with superoxide free radical to form a fluorescent product (excitation/emission maxima=510/580 nm) that binds to mitochondrial nucleic acids. A higher fluorescence reading corresponds to a higher level of superoxide free radical being present within the mitochondria.
Cell Culture: One 6 well plate is used per sample. Multiple plates may be prepared simultaneously. Refer to Table I for a plate description. THP-1 monocytes (ATCC cat# TIB-202) are plated at 1.5×10^6 cells/well in 6 well plates (contained in 2 ml/well RMPI 1640 media supplemented with 10% FBS) and incubated for 1 hour before treating.
Treatment: Glutathione monoethylester (GMEE, 100 uM final concentration) is used as a positive control. […]

SMILES strings stand for the structures.

Regarding `COC(=O)c1cc(O)ccc1O` [Methylgentisate, methylgentisate], the “oxygen radical absorbency capacity (ORAC)” value in test [1] is 25,605 μmol Teq/g.

`CCOC(=O)CNC(=O)[C@H](CS)NC(=O)CC[C@H](N)C(=O)O` [glutathione methyl ester]: the “protection from oxidative stress” value with THP-1 monocytes came to 35%.
